The structures appear in SMILES notation.

The subject of one experiment is primary DRG neuron. Nature of the experiment: Axon growth of primary DRG neurons (immunofluorescence, Neuro J). It is filed as cell-based, C57BL/6J mice. The settings on record: 10 μm, 24 hours. On the procedure: Diabetic peripheral neuropathy involved a sensory neuron first, and a main pathological change was axonal atrophy and degeneration, or even disappearance. […] Therefore, the compounds in the examples were added with the primary DRG neuron to incubate for a certain period of time, then the axon growth of the DRG neuron was detected by immunofluorescence, and an axon length was quantified by Neuro J, so as to evaluate the promotion effect of the compound on the axon growth of the peripheral sensory neuron.
Primary antibodies of mice anti-β-tubulin III used for fluorescent staining were purchased from Sigma Company, cell culture reagents were all purchased from Gibco Company, and DRG neuronal cells were taken from C57BL/6J mice. Specific experimental steps were as follows: fresh DRG of the C57 mice was extracted to digest into a single-cell suspension and then inoculated into a culture plate for adherent culture overnight, with vinblastine as a positive drug, the to-be-detected compounds S1 to S87 ([…]) synthesized in the above examples were given to incubate for 24 hours, then an original culture medium was removed, 4% paraformaldehyde was added into each well to fix for 15 minutes after PBS washing, the mixture was permeabilized with 0.3% TritonX-100 for 5 minutes and sealed at room temperature with 4% BSA for 1 hour, a primary antibody (1:1000) was incubated at 4° C. overnight, a goat anti-mouse fluorescent secondary antibody (1:300) was incubated at room temperature in the dark for 1 hour, and a sealed slide was imaged by a fluorescence microscope (Leica). According to the image, a total axon length of a single DRG neuron was tracked by a Neuro J plug-in in Image J software, and a multiple of the total axon length relative to that of the blank control group was calculated.
For `CC[C@@]12C=C(C(=O)NCC(=O)OCCOCCOCCOCCOC)n3c4c(c5ccccc53)CCN(CCC1)[C@H]42` [Compound S3], the “Promotion of axon growth of the primary DRG neuron compared with the positive drug (in words)” value is listed as “more outstanding effect”.

On to `CC[C@@]12C=C(C(=O)NCC(=O)OCCOCCOCCOCCOCCO)n3c4c(c5ccccc53)CCN(CCC1)[C@H]42` [Compound S27], for which the “Promotion of axon growth of the primary DRG neuron compared with the positive drug (in words)” value is on record as “more outstanding effect”.

With `CC[C@@]12C=C(C(=O)OCCCC(=O)OCCOCCOCCOCCOCCOCCO)n3c4c(c5ccccc53)CCN(CCC1)[C@H]42` [Compound S62], the “Promotion of axon growth of the primary DRG neuron compared with the positive drug (in words)” value was “more outstanding effect”.

Staying with this experiment, now noted: Mus musculus, 24 hours, multiple of total axon length of a single DRG neuron relative to blank control group.
For `CC[C@@]12C=C(C(=O)NCC(=O)OCCOCCOC)n3c4c(c5ccccc53)CCN(CCC1)[C@H]42` [Compound S1], the fold induction (commonly the signal under treatment as a multiple of the control signal) at 10 µM amounted to 9.7.

Regarding `CC[C@@]12C=C(C(=O)NCC(=O)OCCOCCOCCOC)n3c4c(c5ccccc53)CCN(CCC1)[C@H]42` [Compound S2], the fold induction at 10 µM stood at 9.5.

As to `CC[C@@]12C=C(C(=O)NCC(=O)OCCOCCOCCOCCOC)n3c4c(c5ccccc53)CCN(CCC1)[C@H]42` [Compound S3], the fold induction at 10 µM was determined as 13.2.

`CC[C@@]12C=C(C(=O)NCC(=O)OCCOCCOCCOCCOCCOC)n3c4c(c5ccccc53)CCN(CCC1)[C@H]42` [Compound S4]: the fold induction at 10 µM amounted to 11.5.

In the case of `CC[C@@]12C=C(C(=O)N[C@@H](CC(C)C)C(=O)OCCOCCOCCOCCOC)n3c4c(c5ccccc53)CCN(CCC1)[C@H]42` [Compound S13], the fold induction at 10 µM was found to be 11.6.

For the compound `CC[C@@]12C=C(C(=O)N[C@@H](Cc3ccccc3)C(=O)OCCOCCOCCOCCOC)n3c4c(c5ccccc53)CCN(CCC1)[C@H]42` [Compound S14], the fold induction at 10 µM amounted to 10.5.

In turn, `CC[C@@]12C=C(C(=O)N[C@@H](CO)C(=O)OCCOCCOCCOCCOC)n3c4c(c5ccccc53)CCN(CCC1)[C@H]42` [Compound S15] came in with a fold induction at 10 µM of 11.3.

Compound `CC[C@@]12C=C(C(=O)N[C@@H](CC(N)=O)C(=O)OCCOCCOCCOCCOC)n3c4c(c5ccccc53)CCN(CCC1)[C@H]42` [Compound S16] displayed a fold induction at 10 µM of 11.2.

In turn, `CC[C@@]12C=C(C(=O)NCC(=O)OCCO)n3c4c(c5ccccc53)CCN(CCC1)[C@H]42` [Compound S23] displayed a fold induction at 10 µM of 10.3.

Turning to `CC[C@@]12C=C(C(=O)NCC(=O)OCCOCCO)n3c4c(c5ccccc53)CCN(CCC1)[C@H]42` [Compound S24], the fold induction at 10 µM stood at 11.7.

In the case of `CC[C@@]12C=C(C(=O)NCC(=O)OCCOCCOCCO)n3c4c(c5ccccc53)CCN(CCC1)[C@H]42` [Compound S25], the fold induction at 10 µM was found to be 12.3.

In turn, `CC[C@@]12C=C(C(=O)NCC(=O)OCCOCCOCCOCCOCCO)n3c4c(c5ccccc53)CCN(CCC1)[C@H]42` [Compound S27] came in with a fold induction at 10 µM of 12.9.

In the case of `CC[C@@]12C=C(C(=O)NCC(=O)OCCOCCOCCOCCOCCOCCO)n3c4c(c5ccccc53)CCN(CCC1)[C@H]42` [Compound S28], the fold induction at 10 µM is 12.2.

`CC[C@@]12C=C(C(=O)N[C@@H](C)C(=O)OCCOCCOCCOCCO)n3c4c(c5ccccc53)CCN(CCC1)[C@H]42` [Compound S29] showed a fold induction at 10 µM of 12.5.

Turning to `CC[C@@]12C=C(C(=O)N[C@H](C(=O)OCCOCCOCCOCCO)C(C)C)n3c4c(c5ccccc53)CCN(CCC1)[C@H]42` [Compound S30], the fold induction at 10 µM was determined as 12.6.

Compound `CC[C@@]12C=C(C(=O)N[C@@H](CC(C)C)C(=O)OCCOCCOCCOCCO)n3c4c(c5ccccc53)CCN(CCC1)[C@H]42` [Compound S31] came in with a fold induction at 10 µM of 11.8.

For the compound `CCC(C)[C@H](NC(=O)C1=C[C@]2(CC)CCCN3CCc4c(n1c1ccccc41)[C@@H]32)C(=O)OCCOCCOCCOCCO` (some centres unmarked) [Compound S32], the fold induction at 10 µM amounted to 12.3.

`CC[C@@]12C=C(C(=O)N[C@@H](Cc3ccccc3)C(=O)OCCOCCOCCOCCO)n3c4c(c5ccccc53)CCN(CCC1)[C@H]42` [Compound S33] returned a fold induction at 10 µM of 10.9.

The compound `CC[C@@]12C=C(C(=O)N[C@@H](CO)C(=O)OCCOCCOCCOCCO)n3c4c(c5ccccc53)CCN(CCC1)[C@H]42` [Compound S34] returned a fold induction at 10 µM of 10.5.

Compound `CC[C@@]12C=C(C(=O)N[C@H](C(=O)OCCOCCOCCOCCO)C(C)O)n3c4c(c5ccccc53)CCN(CCC1)[C@H]42` (some centres unmarked) [Compound S35] came in with a fold induction at 10 µM of 12.1.

`CC[C@@]12C=C(C(=O)N[C@@H](CCC(N)=O)C(=O)OCCOCCOCCOCCO)n3c4c(c5ccccc53)CCN(CCC1)[C@H]42` [Compound S36] returned a fold induction at 10 µM of 11.7.

`CC[C@@]12C=C(C(=O)N[C@@H](Cc3cc4ccccc4[nH]3)C(=O)OCCOCCOCCOCCO)n3c4c(c5ccccc53)CCN(CCC1)[C@H]42` [Compound S37] showed a fold induction at 10 µM of 10.8.

On to `CC[C@@]12C=C(C(=O)N[C@@H](CN)C(=O)OCCOCCOCCOCCO)n3c4c(c5ccccc53)CCN(CCC1)[C@H]42` [Compound S39], for which the fold induction at 10 µM came out at 11.2.

`CC[C@@]12C=C(C(=O)N[C@@H](CCCCN)C(=O)OCCOCCOCCOCCO)n3c4c(c5ccccc53)CCN(CCC1)[C@H]42` [Compound S40]: the fold induction at 10 µM was 11.4.

As for `CC[C@@]12C=C(C(=O)N[C@@H](CC(N)=O)C(=O)OCCOCCOCCOCCO)n3c4c(c5ccccc53)CCN(CCC1)[C@H]42` [Compound S41], the fold induction at 10 µM came to 11.

`CC[C@@]12C=C(C(=O)N[C@@H](CC(=O)O)C(=O)OCCOCCOCCOCCO)n3c4c(c5ccccc53)CCN(CCC1)[C@H]42` [Compound S42] had a fold induction at 10 µM of 10.3.

As to `CC[C@@]12C=C(C(=O)N[C@@H](CCC(=O)O)C(=O)OCCOCCOCCOCCO)n3c4c(c5ccccc53)CCN(CCC1)[C@H]42` [Compound S43], the fold induction at 10 µM was determined as 11.2.

The compound `CC[C@@]12C=C(C(=O)N[C@@H](Cc3ccc(O)cc3)C(=O)OCCOCCOCCOCCO)n3c4c(c5ccccc53)CCN(CCC1)[C@H]42` [Compound S44] registered a fold induction at 10 µM of 9.9.

`CC[C@@]12C=C(C(=O)N[C@@H](Cc3c[nH]cn3)C(=O)OCCOCCOCCOCCO)n3c4c(c5ccccc53)CCN(CCC1)[C@H]42` [Compound S45] had a fold induction at 10 µM of 10.5.

The compound `CC[C@@]12C=C(C(=O)N[C@@H](CS)C(=O)OCCOCCOCCOCCO)n3c4c(c5ccccc53)CCN(CCC1)[C@H]42` [Compound S46] showed a fold induction at 10 µM of 10.7.

`CC[C@@]12C=C(C(=O)NCC(=O)N[C@@H](C)C(=O)OCCOCCOCCO)n3c4c(c5ccccc53)CCN(CCC1)[C@H]42` [Compound S47] returned a fold induction at 10 µM of 11.2.

For the compound `CC[C@@]12C=C(C(=O)NCC(=O)N[C@@H](CO)C(=O)OCCOCCOCCOCCO)n3c4c(c5ccccc53)CCN(CCC1)[C@H]42` [Compound S48], the fold induction at 10 µM stood at 11.4.

As to `CC[C@@]12C=C(C(=O)NCC(=O)N[C@@H](CC(N)=O)C(=O)OCCOCCOCCOCCO)n3c4c(c5ccccc53)CCN(CCC1)[C@H]42` [Compound S49], the fold induction at 10 µM stood at 12.

As for `CC[C@@]12C=C(C(=O)NCC(=O)N[C@@H](CC(=O)O)C(=O)OCCOCCOCCOCCO)n3c4c(c5ccccc53)CCN(CCC1)[C@H]42` [Compound S50], the fold induction at 10 µM was 11.3.

The compound `CC[C@@]12C=C(C(=O)NCC(=O)N[C@@H](CC(C)C)C(=O)OCCOCCOCCOCCO)n3c4c(c5ccccc53)CCN(CCC1)[C@H]42` [Compound S51] had a fold induction at 10 µM of 9.8.

In the case of `CC[C@@]12C=C(C(=O)NCC(=O)N[C@H](C(=O)OCCOCCOCCOCCO)C(C)O)n3c4c(c5ccccc53)CCN(CCC1)[C@H]42` (some centres unmarked) [Compound S52], the fold induction at 10 µM turned out to be 9.5.

On to `CC[C@@]12C=C(C(=O)OCCC(=O)OCCO)n3c4c(c5ccccc53)CCN(CCC1)[C@H]42` [Compound S53], for which the fold induction at 10 µM came out at 9.9.

The compound `CC[C@@]12C=C(C(=O)OCCC(=O)OCCOCCO)n3c4c(c5ccccc53)CCN(CCC1)[C@H]42` [Compound S56] came in with a fold induction at 10 µM of 11.3.

`CC[C@@]12C=C(C(=O)OCCC(=O)OCCOCCOCCO)n3c4c(c5ccccc53)CCN(CCC1)[C@H]42` [Compound S57] had a fold induction at 10 µM of 10.8.

With `CC[C@@]12C=C(C(=O)OCCC(=O)OCCOCCOCCOCCO)n3c4c(c5ccccc53)CCN(CCC1)[C@H]42` [Compound S58], the fold induction at 10 µM worked out at 11.4.

Compound `CC[C@@]12C=C(C(=O)OCCC(=O)OCCOCCOCCOCCOCCO)n3c4c(c5ccccc53)CCN(CCC1)[C@H]42` [Compound S59] came in with a fold induction at 10 µM of 10.6.

With `CC[C@@]12C=C(C(=O)OCCC(=O)OCCOCCOCCOCCOCCOCCO)n3c4c(c5ccccc53)CCN(CCC1)[C@H]42` [Compound S60], the fold induction at 10 µM came out at 12.

Take `CC[C@@]12C=C(C(=O)OCCCC(=O)OCCOCCOCCOCCO)n3c4c(c5ccccc53)CCN(CCC1)[C@H]42` [Compound S61]: the fold induction at 10 µM came to 11.3.

As for `CC[C@@]12C=C(C(=O)OCCCC(=O)OCCOCCOCCOCCOCCOCCO)n3c4c(c5ccccc53)CCN(CCC1)[C@H]42` [Compound S62], the fold induction at 10 µM turned out to be 12.8.

In the case of `CC[C@@]12C=C(C(=O)N(C)CC(=O)OCCOCCOCCOCCO)n3c4c(c5ccccc53)CCN(CCC1)[C@H]42` [Compound S63], the fold induction at 10 µM is 10.9.

`CC[C@@]12C=C(C(=O)N(CC(=O)OCCOCCOCCOCCO)C3CC3)n3c4c(c5ccccc53)CCN(CCC1)[C@H]42` [Compound S64] had a fold induction at 10 µM of 11.3.

`CC[C@@]12C=C(C(=O)NCCNC(=O)OCCOCCOCCOCCO)n3c4c(c5ccccc53)CCN(CCC1)[C@H]42` [Compound S65] yielded a fold induction at 10 µM of 11.

The values above are taken from US12600724B2, “Indole alkaloid and preparation method and use thereof” (NANJING UNIVERSITY OF CHINESE MEDICINE, priority 2022, dated 2026).
